In PMC10693528, “A high-throughput metabolomics in vitro platform for the characterization of hepatotoxicity” (Cell Biology and Toxicology, 2023):

System: HepG2 cells
Assay: LC-MS/MS targeted intracellular metabolomics
Format: cell-based, human
Conditions: Suppl Fig 10, C3 (C2 for Aroclor), 48 h
Protocol: Metabolite profiling of cells was performed directly in the same 96-well plate according to a standardized protocol described below. In order to prevent any interaction with the cell material, the automatic sampler was adjusted to pick up the sample from the supernatant at a specified depth avoiding the contact with the bottom of the plate.
After the initial quenching step (50 μL isopropanol 80%), additional 70 μL of isopropanol 80%, containing internal standards (methionine-D3, tryptophan-D5, arginine-13C6-15N4, Boc-Ala-Gly-Gly-Gly-OH, coenzyme Q1, coenzyme Q2, coenzyme Q4) were added to each well. The internal standards were used for quality control by visual inspection (signal intensity, peak shape, retention time); they were not used for normalization. Afterwards, plates were shaken for 5 min, 750 rpm at 20 °C, and placed for 30 s in the ultrasonic device. Then, the plates were centrifugated for 10 min, at 5485 g, 15 °C. Further, 2.5 μL of the extract were injected each for reversed-phase and hydrophilic interaction liquid chromatography followed by MS/MS detection (AB Sciex QTrap 6500+) using the positive and negative ionization mode. For reverse-phase high-performance liquid chromatography (RP-HPLC, Ascentis Express C18, 5 cm × 2.1 mm, 2.7 μm Supelco), gradient elution was performed with mobile phase A, water/methanol/0.1 M ammonium formate (1:1:0.02, w/w), and B, methyl-tert-butylether/2-propanol/methanol/0.1 M ammonium formate/formic acid (4:2:1:0.07:0.035, w/w) 5.9 min linear gradient: 0 min 100% A, 0.5 min 75% A, 5.9 min 10% A; followed by 0% A until 6.7 min; re-equilibration at 100% A until 7.7 min; flow rate 600 μL/min; column temperature 40 °C HILIC (ZIC-HILIC, 2.1 × 100 mm, 3.5 μm, Supelco) gradient elution was performed with mobile phase C, acetonitrile/water (99:1, v/v) with 0.2% (v) acetic acid, and D, 7 mM ammonium acetate with 0.2% (v) acetic acid (5.0 min linear gradient: 0 min 100% C, 5 min 10% C; followed by a linear gradient back to 100%C until 6.5 min; re-equilibration at 100% C until 7.5 min; flow rate 600 μL/min; column temperature 40 °C.). Two LC-MS systems with identical configuration were used for the analysis. Normalization to lyophilized reference samples (see below) was used to compensate for variation from between analytical batches. The efficiency of this normalization procedure was checked by principal component analysis (PCA), confirming that Pool samples from different analytical batches clustered together.
Reference samples derived from lyophilized untreated HepG2 cells (technical control samples) were measured in parallel throughout the entire analytical process. Data were normalized against the median of these lyophilized HepG2 cells reference samples, to give normalized ratios (performed for each sample per metabolite). This compensated for inter- and intra-instrumental variation. To correct for small differences in cell numbers within and between different treatment groups, data were also normalized to the within sample median, as described in detail by (Ramirez et al. [2018]). For intracellular metabolomic analysis, the median of each sample was calculated across all the 221 measured metabolites.
To generate metabolic profiles for the different treatments, heteroscedastic t test (Welch test) was applied to log-transformed normalized metabolite data to compare treated groups with their respective controls.
Principal component analysis (PCA) and hierarchical clustering (HCA) analyses were performed using R software environment (https://www.r-project.org/). PCA was conducted using the ropls package (Thévenot et al. [2015]) with log10-transformed input data and standard scaling. HCA was performed using the pvclust package (Suzuki et al. [2019]), (https://CRAN.R-project.org/package=pvclust). Input: log10(Ratio), clustering method: Ward D2, distance method: Manhattan, bootstrapping: 10000 times.

O=c1cc(-c2ccccc2)oc2ccc3ccccc3c12 [β-naphthoflavone]
Carnitine level vs controls: 0.88
Ceramide (d16:1.C24:0) level vs controls: 1.20
Ceramide (d17:1.C24:0) level vs controls: 1.24
Ceramide (d18:1.C20:0) level vs controls: 0.73
Ceramide (d18:1.C22:1) level vs controls: 0.65
Ceramide (d18:1.C24:1) level vs controls: 0.64
Ceramide (d18:2.C16:0) level vs controls: 1.48
Ceramide (d18:2.C23:0) level vs controls: 1.56
Ceramide (d18:2.C24:0) level vs controls: 1.41
Ceramide (d18:2.C24:1) level vs controls: 1.23
Choline plasmalogen (C36:4) level vs controls: 0.82
Choline plasmalogen (C36:5) level vs controls: 0.84
Cysteinylglycine level vs controls: 3.16
Flavin adenine dinucleotide (FAD) level vs controls: 1.63
Glutathione (GSH) level vs controls: 2.59
Hexanoylcarnitine level vs controls: 1.02
Isopentenyl pyrophosphate (IPP) level vs controls: 2.43
Lysophosphatidylcholine (C14:0) level vs controls: 1.48
Lysophosphatidylcholine (C16:0) level vs controls: 2.15
Lysophosphatidylcholine (C20:0) level vs controls: 2.34
Lysophosphatidylcholine (C20:1) level vs controls: 2.23
Lysophosphatidylcholine (C20:4) level vs controls: 1.68
Lysophosphatidylcholine (C22:0) level vs controls: 1.99
Lysophosphatidylcholine (C24:0) level vs controls: 2.67
Lysophosphatidylcholine (C24:1) level vs controls: 2.34
Lysophosphatidylethanolamine (C16:0) level vs controls: 1.77
Lysophosphatidylethanolamine (C18:0) level vs controls: 2.25
N-Acetylglucosamine level vs controls: 0.79
N-Acetylserine level vs controls: 1.03
O-Acetylcarnitine level vs controls: 0.87
Pantothenic acid level vs controls: 0.96
Phosphatidylcholine (C32:0) level vs controls: 1.16
Phosphatidylcholine (C34:0) level vs controls: 1.39
Phosphatidylcholine (C34:2) level vs controls: 0.77
Phosphatidylcholine (C34:3) level vs controls: 0.60
Phosphatidylcholine (C36:0) level vs controls: 1.62
Phosphatidylcholine (C36:1) level vs controls: 1.21
Phosphatidylcholine (C36:2) level vs controls: 0.80
Phosphatidylcholine (C36:3) level vs controls: 0.87
Phosphatidylcholine (C36:4) level vs controls: 1.08
Phosphatidylcholine (C38:6) level vs controls: 1.09
Phosphatidylethanolamine (C32:0) level vs controls: 1.63
Phosphatidylethanolamine (C34:0) level vs controls: 1.79
Phosphatidylethanolamine (C34:1) level vs controls: 1.38
Phosphatidylethanolamine (C34:2) level vs controls: 0.93
Phosphatidylethanolamine (C36:0) level vs controls: 2.10
Phosphatidylethanolamine (C36:1) level vs controls: 1.81
Phosphatidylethanolamine (C36:3) level vs controls: 0.84
Phosphatidylethanolamine (C38:5) level vs controls: 0.93
Phosphatidylethanolamine (C40:7) level vs controls: 0.79
Proline level vs controls: 0.64
Propionylcarnitine level vs controls: 1.03
Sphingomyelin (d32:1) level vs controls: 0.84
Sphingomyelin (d35:1) level vs controls: 1.06
Sphingomyelin (d38:2) level vs controls: 0.94
Sphingomyelin (d40:2) level vs controls: 0.77
Sphingomyelin (d41:2) level vs controls: 0.85
Sphingomyelin (d42:2) level vs controls: 0.74
Triacylglycerol (C30:0.C18:1) level vs controls: 0.36
Triacylglycerol (C32:0.C16:1) level vs controls: 0.41
Triacylglycerol (C32:1.C16:1) level vs controls: 0.26
Triacylglycerol (C34:0.C18:1) level vs controls: 0.47
Triacylglycerol (C34:1.C16:0) level vs controls: 0.39
Triacylglycerol (C34:1.C18:1) level vs controls: 0.47
Triacylglycerol (C34:2.C18:0) level vs controls: 0.40
Triacylglycerol (C34:2.C18:1) level vs controls: 0.24
Triacylglycerol (C36:1.C18:0) level vs controls: 0.46
Triacylglycerol (C36:1.C18:1) level vs controls: 0.35
Triacylglycerol (C36:1.C18:2) level vs controls: 0.46
Triacylglycerol (C36:2.C18:1) level vs controls: 0.41
Triacylglycerol (C36:3.C18:1) level vs controls: 0.38
Tyrosine level vs controls: 1.14
myo-Inositol-2-phosphate level vs controls: 0.65
Sphingomyelin (d34:2) level vs controls (first of two lines with this name): 1.05
Sphingomyelin (d34:2) level vs controls (second of two lines with this name): 1.07
